Results on 14 compounds are retold here after PubChem BioAssay AID192 (DTP/NCI, 2004).

Several values for one entry are separate records, joined by “and”; a condition that tells them apart may be missing. Equal values may be shown once. Inconclusive results and toxic doses are left out.

In this test the test system is BDF1 mice, B16 melanoma ip, median survival T/C. The experiment in a line: NCI In Vivo Anticancer Drug Screen. Data for tumor model B16 Melanoma (intraperitoneal) in B6D2F1 (BDF1) mice. The note with it: endpoint: median survival time, higher = longer survival. The procedure:
The antitumor activity of compounds was measured in mice bearing transplantable tumors. Survival or tumor size were measured and the results are expressed as the measurement made in the treated group (T) divided by the measurement made in the vehicle treated control group (C). The tumor model used in this assay is B16 Melanoma (intraperitoneal) in B6D2F1 (BDF1) mice

Where [1] appears, read: dose: 25.0 mg/kg/injection, schedule: Q01DX009 (ip), vehicle: saline with Tween-80.
Setting [2] is: dose: 50.0 mg/kg/injection, schedule: Q01DX009 (ip), vehicle: saline with Tween-80.
Setting [3] is: dose: 100.0 mg/kg/injection, schedule: Q01DX009 (ip), vehicle: saline with Tween-80.
[4] abbreviates: dose: 100.0 mg/kg/injection, schedule: Q01DX009 (ip), vehicle: Klucel (hydroxypropylcellulose) (HPC).
Setting [5] is: dose: 200.0 mg/kg/injection, schedule: Q01DX009 (ip), vehicle: Klucel (hydroxypropylcellulose) (HPC).
Where [6] appears, read: dose: 200.0 mg/kg/injection, schedule: Q01DX009 (ip), vehicle: saline with Tween-80.
Setting [7] is: dose: 37.5 mg/kg/injection, schedule: Q01DX009 (ip), vehicle: saline.

Consider `Cc1c(Cl)cccc1NC(=O)C(c1ccccc1)c1ccccc1`, for which the T/C reads like this: under setting [1], 99 % of control; under setting [2], 86 % of control; under setting [3], 91 % of control.

Turning to `CC(=O)CC(=O)N1CCC(C)CC1`, the T/C is 110 % of control under setting [4]; 112 % of control under setting [5]; 115 % of control (dose: 400.0 mg/kg/injection, schedule: Q01DX009 (ip), vehicle: Klucel (hydroxypropylcellulose) (HPC)).

Consider `C[n+]1noc([O-])c1-c1ccccc1`, for which the T/C reads like this: under setting [2], 101 % of control; under setting [3], 97 % of control; under setting [6], 103 % of control.

For the compound `Nc1ncnc2c(C3OC(CO)C(O)C3O)[nH]nc12` (stereo not drawn), the T/C is 113 % of control (dose: 1.0 mg/kg/injection, schedule: Q01DX009 (ip), vehicle: saline); 122 % of control (dose: 2.0 mg/kg/injection, schedule: Q01DX009 (ip), vehicle: saline); 122 % of control (dose: 4.0 mg/kg/injection, schedule: Q01DX009 (ip), vehicle: saline); 107 % of control (dose: 8.0 mg/kg/injection, schedule: Q01DX009 (ip), vehicle: saline).

Consider `CC[P+](CC)(CC)CCCCI`, for which the T/C (dose: 50.0 mg/kg/injection, schedule: Q01DX009 (ip), vehicle: saline) was 93 % of control.

As for `Cc1cc2c3ccc(C)[n+](C)c3ccc2n1C`, the T/C was 102 % of control (dose: 0.08 mg/kg/injection, schedule: Q01DX009 (ip), vehicle: saline); 92 % of control (dose: 0.15 mg/kg/injection, schedule: Q01DX009 (ip), vehicle: saline); 97 % of control (dose: 0.3 mg/kg/injection, schedule: Q01DX009 (ip), vehicle: saline); 100 % of control (dose: 1.25 mg/kg/injection, schedule: Q01DX009 (ip), vehicle: saline); 94 % of control (dose: 2.5 mg/kg/injection, schedule: Q01DX009 (ip), vehicle: saline).

As to `Cc1ccc(C(=N)c2ccccc2Cc2cccc3ccccc23)c(C)c1`, the T/C under setting [2] is 88 % of control.

Consider `CC(C)NNC(=O)c1ccccc1N`, for which the T/C (dose: 12.5 mg/kg/injection, schedule: Q01DX009 (ip), vehicle: Klucel (hydroxypropylcellulose) (HPC)) is 100 % of control; the T/C (dose: 50.0 mg/kg/injection, schedule: Q01DX009 (ip), vehicle: Klucel (hydroxypropylcellulose) (HPC)) was 87 % of control; the T/C under setting [4] was 95 % of control; the T/C under setting [5] is 97 % of control.

In the case of `CCCCCCCCCCNCCC(=O)O`, the T/C runs as follows: (dose: 0.58 mg/kg/injection, schedule: Q01DX009 (ip), vehicle: saline) 98 % of control; (dose: 1.1 mg/kg/injection, schedule: Q01DX009 (ip), vehicle: saline) 96 % of control; (dose: 2.3 mg/kg/injection, schedule: Q01DX009 (ip), vehicle: saline) 95 % of control; under setting [7], 102 % of control.

Regarding `Cc1cc[n+](CCc2ccccc2)cc1`, the T/C (dose: 6.25 mg/kg/injection, schedule: Q01DX009 (ip), vehicle: saline with Tween-80) was 92 % of control; the T/C (dose: 12.5 mg/kg/injection, schedule: Q01DX009 (ip), vehicle: saline with Tween-80) is 88 % of control; the T/C under setting [1] was 95 % of control; the T/C under setting [2] is 88 % of control.

As for `OC(CC1(O)C(F)(F)C(F)(F)C1(F)F)c1ccccc1` (stereo not drawn), the T/C is 107 % of control under setting [2], 110 % of control under setting [3] and 94 % of control under setting [6].

As for `CC1CCC(NC(=O)N(CCCl)N=O)CC1` (stereo not drawn), the T/C by setting is: (dose: 0.5 mg/kg/injection, schedule: Q01DX009 (ip), vehicle: other) 104 % of control; (dose: 0.5 mg/kg/injection, schedule: Q01DX009 (ip), vehicle: saline + alcohol) 95 % of control; (dose: 1.0 mg/kg/injection, schedule: Q01DX009 (ip), vehicle: other) 112 % of control; (dose: 1.0 mg/kg/injection, schedule: Q01DX009 (ip), vehicle: saline + alcohol) 113 % of control; (dose: 1.9 mg/kg/injection, schedule: Q01DX001 (ip), vehicle: saline) 106 % of control; (dose: 2.0 mg/kg/injection, schedule: Q01DX009 (ip), vehicle: distilled water + Tween-80 + alcohol) 103 % of control. The T/C was 111 % of control (dose: 2.0 mg/kg/injection, schedule: Q01DX009 (ip), vehicle: other); 118 % of control (dose: 2.0 mg/kg/injection, schedule: Q01DX009 (ip), vehicle: saline + alcohol); 109 % of control (dose: 2.5 mg/kg/injection, schedule: Q04DX003 (ip), vehicle: other); 117 % of control (dose: 3.75 mg/kg/injection, schedule: Q01DX001 (ip), vehicle: saline); 112 % of control and 123 % of control (dose: 3.75 mg/kg/injection, schedule: Q04DX003 (ip), vehicle: other); 108 % of control (dose: 4.0 mg/kg/injection, schedule: Q01DX009 (ip), vehicle: distilled water + Tween-80 + alcohol). The T/C (dose: 4.0 mg/kg/injection, schedule: Q01DX009 (ip), vehicle: saline + alcohol) was 150 % of control; the T/C (dose: 5.0 mg/kg/injection, schedule: Q04DX003 (ip), vehicle: other) was 124 % of control; the T/C (dose: 7.5 mg/kg/injection, schedule: Q04DX003 (ip), vehicle: other) was 212 % of control; the T/C (dose: 8.0 mg/kg/injection, schedule: Q01DX009 (ip), vehicle: distilled water + Tween-80 + alcohol) is 184 % of control; the T/C (dose: 8.0 mg/kg/injection, schedule: Q01DX009 (ip), vehicle: other) is 200 % of control; the T/C (dose: 8.0 mg/kg/injection, schedule: Q01DX009 (ip), vehicle: saline + alcohol) was 72 % of control. Also, the T/C (dose: 9.0 mg/kg/injection, schedule: Q04DX002 (ip), vehicle: Klucel (hydroxypropylcellulose) (HPC)) was 121 % of control; the T/C (dose: 10.0 mg/kg/injection, schedule: Q04DX003 (ip), vehicle: other) was 189 % of control; the T/C (dose: 15.0 mg/kg/injection, schedule: Q04DX002 (ip), vehicle: Klucel (hydroxypropylcellulose) (HPC)) was 150 % of control; the T/C (dose: 15.0 mg/kg/injection, schedule: Q04DX003 (ip), vehicle: other) was 94 % of control and 272 % of control; the T/C (dose: 16.0 mg/kg/injection, schedule: Q01DX009 (ip), vehicle: distilled water + Tween-80 + alcohol) was 51 % of control; the T/C (dose: 16.0 mg/kg/injection, schedule: Q01DX009 (ip), vehicle: other) was 50 % of control. In addition, the T/C was 45 % of control (dose: 16.0 mg/kg/injection, schedule: Q01DX009 (ip), vehicle: saline + alcohol); 263 % of control (dose: 20.0 mg/kg/injection, schedule: Q04DX003 (ip), vehicle: other); 161 % of control (dose: 24.0 mg/kg/injection, schedule: Q01DX001 (ip), vehicle: distilled water + Tween-80 + alcohol); 196 % of control (dose: 25.0 mg/kg/injection, schedule: Q04DX002 (ip), vehicle: Klucel (hydroxypropylcellulose) (HPC)); 50 % of control and 55 % of control (dose: 30.0 mg/kg/injection, schedule: Q04DX003 (ip), vehicle: other); 37 % of control (dose: 32.0 mg/kg/injection, schedule: Q01DX009 (ip), vehicle: other). The T/C was 31 % of control (dose: 32.0 mg/kg/injection, schedule: Q01DX009 (ip), vehicle: saline + alcohol); 182 % of control (dose: 40.0 mg/kg/injection, schedule: Q01DX001 (ip), vehicle: distilled water + Tween-80 + alcohol); 213 % of control (dose: 42.0 mg/kg/injection, schedule: Q04DX002 (ip), vehicle: Klucel (hydroxypropylcellulose) (HPC)); 27 % of control (dose: 64.0 mg/kg/injection, schedule: Q01DX009 (ip), vehicle: other); 26 % of control (dose: 64.0 mg/kg/injection, schedule: Q01DX009 (ip), vehicle: saline + alcohol); 63 % of control (dose: 66.7 mg/kg/injection, schedule: Q01DX001 (ip), vehicle: distilled water + Tween-80 + alcohol).

On to `Cc1cc(C(=O)NNC(C)Cc2ccccc2)no1` (stereo not drawn), for which the T/C runs as follows: (dose: 4.6 mg/kg/injection, schedule: Q01DX009 (ip), vehicle: saline) 95 % of control; (dose: 9.3 mg/kg/injection, schedule: Q01DX009 (ip), vehicle: saline) 100 % of control; (dose: 18.75 mg/kg/injection, schedule: Q01DX009 (ip), vehicle: saline) 102 % of control; under setting [7], 120 % of control.

Turning to `Cc1ccc2no[n+]([O-])c2c1[N+](=O)[O-]`, the T/C by setting is: under setting [1], 93 % of control; under setting [2], 97 % of control; under setting [3], 98 % of control.
